These results are taken from paper PMC11423540, “Synthesis and biological evaluation of ortho-phenyl phenylhydroxamic acids containing phenothiazine with improved selectivity for class IIa histone deacetylases” (Journal of Enzyme Inhibition and Medicinal Chemistry, 2024).

Like-named read-outs stand apart in the source and are kept apart here.

One assay concerns the target T1, HDAC8 (Homo sapiens, UniProt Q9BY41).
T1 sequence (Q9BY41 1-377): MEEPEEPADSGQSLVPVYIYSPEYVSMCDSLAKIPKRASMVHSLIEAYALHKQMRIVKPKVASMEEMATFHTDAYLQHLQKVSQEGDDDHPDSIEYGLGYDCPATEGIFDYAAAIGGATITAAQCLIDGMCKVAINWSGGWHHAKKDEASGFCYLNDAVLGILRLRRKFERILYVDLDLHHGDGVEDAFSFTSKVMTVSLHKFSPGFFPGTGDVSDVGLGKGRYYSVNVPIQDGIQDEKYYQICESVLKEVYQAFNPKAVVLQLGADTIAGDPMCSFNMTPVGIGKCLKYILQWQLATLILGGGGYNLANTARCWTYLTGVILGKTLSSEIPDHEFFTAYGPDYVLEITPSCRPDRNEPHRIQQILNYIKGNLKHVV
Further details: method as in PMID 33570940. Conditions: cited from earlier work.

Assay [1] concerns HeLa nuclear HDACs. As to the kind of experiment: HDAC inhibition assay, HeLa nuclear extract (mixture of class I HDACs 1, 2, and 3). Conditions: read-out: IC50 HeLa nuclear HDACs, Boc-Lys-(AMC) substrate.
The test system of assay [2] is HeLa nuclear HDACs. Further details: method as in PMID 33845233. Conditions: introduction, earlier work; read-out: IC50 class I HDACs; cited from earlier work.
A further assay deals with SCM-1 cells. In words: Cell viability (MTT) assay, SCM-1. It is filed as cell-based. Conditions: human gastric cancer cells, read-out: IC50 of cytotoxicity SCM-1. An excerpt: (§1) Human breast cancer MDA-MB-231 cells and gastric cancer SCM-1 cells were purchased from the American Type Culture Collection (Manasas, VA, USA). SCC2095 human oral cancer cells were kindly provided by Professor Susan R. Mallery (The Ohio State University). Normal human lung fibroblasts (NHLFs; CC-2512) were purchased from the Lonza (Walkersville, MD, USA). SCM-1 cells were maintained in RPMI-1640 medium (Invitrogen, Carlsbad, CA, USA); MDA-MB-231 and SCC2095 cells were maintained in DMEM/F12 (Invitrogen); and NHLFs were maintained in FGM™-2 medium (Lonza) with 2% serum, supplemented with 10% heat-inactivated foetal bovine serum (FBS; Gibco, Grand Island, NY, USA). All cells were cultured at 37 °C in a humidified incubator containing 5% CO2 and 95% relative humidity.
(§2) To assess cell viability, cells were seeded in three replicates into 96-well plates at a density of 5×10^3/well for 24 h following incubation with compounds at the indicated concentrations. Then, cell viability was assessed with 3–(4,5-dimethylthiazol-2-yl)-2,5-diphenyltetrazolium bromide (MTT) solution (0.5 mg/mL) for 4h as described previously. After removing the medium, 200 µL of DMSO was added, and then the absorbance was measured at 570 nm using a plate reader (BMG LABTECH, Germany).

For assay [3], the system named is SCC2095 cells. As to the kind of experiment: ROS determination by flow cytometry (DCFH-DA probe). It is filed as cell-based, human. The conditions noted are these: SCC2095, 12 h or 24 h. The procedure:
Cells (2 × 10^5) were treated with tested compounds in 6-well plates for 24 h or 48 h, then washed with ice-cold PBS twice and harvested with trypsin. Cells were incubated with 5 µL Annexin V- FITC/PI (BD Pharmingen, San Diego) for 15 min in the dark condition. Then, the cells were measured by BD FACSCanto flow cytometer (BD, Franklin Lakes, NJ). For ROS determination, DMSO or H2O2 or compound 7 g-treated cells were stained with the ROS probe (DCFH-DA; 5 µM) and detected the DCFH-DA fluorescence.
A general note: A flow cytometer gives signals particle by particle.

The subject of assay [4] is SCC2095 cells. In words: Cell viability (MTT) assay, SCC2095. Type of assay: cell-based. The conditions noted are these: Homo sapiens, 48 h, human oral cancer cells, read-out: IC50 of cytotoxicity SCC2095. How it is done: Human breast cancer MDA-MB-231 cells and gastric cancer SCM-1 cells were purchased from the American Type Culture Collection (Manasas, VA, USA). SCC2095 human oral cancer cells were kindly provided by Professor Susan R. Mallery (The Ohio State University).
as §2

For assay [5], the system named is SCC2095 cells. In words: Western blotting of caspase- and HDAC-related proteins. Type of assay: cell-based, human. The conditions noted are these: SCC2095, DNA damage biomarker, western blot. How it is done:
The protein expression was performed as previously described. Proteins were resolved on 10% SDS-PAGE, then transferred to PVDF (Bio-Rad) membranes. After blocking with 5% skimmed milk in PBS containing 0.1% Tween 20, the membranes were probed with primary antibodies against interest target proteins at 4 °C overnight. The following primary antibodies were used: […], cleaved caspase 9, acetyl α-tubulin, Hsp90, Histone H2A.X, p38, p-^180Thr/^182Tyr p38, PPARγ, and p21 were purchased from Cell Signalling Technologies (Beverly, MA, USA); pro-caspase 8, Millipore; β-actin, Sigma-Aldrich (St. Louis, MO, USA). Then, the immunoblots were washed and exposed to HRP-conjugated secondary antibodies at room temperature for 1 h. The immunoblots were examined by enhanced chemiluminescence.

The next assay deals with MDA-MB-231 cells. As to the kind of experiment: Cell viability (MTT) assay, MDA-MB-231. The conditions noted are these: human breast cancer cells, read-out: IC50 of cytotoxicity MDA-MB-231. Type of assay: cell-based.
From the text: as §1, §2

The IC50 is the point on the concentration scale where inhibition reaches its midpoint. For `O=C(NO)c1ccc(CN2C(=O)c3ccccc3S2(=O)=O)cc1-c1ccccc1` [Compound 1], on HDAC8, the IC50 was 70 nM.

For `NC(=O)c1ccc2c(c1)N(Cc1ccc(C(=O)NO)cc1)c1ccccc1S2` [LH4f, reference compound], the IC50 in the assay on HeLa nuclear HDACs [1] was 100 ± 20 nM; in the assay with HeLa nuclear HDACs [2] it was 100 nM.

With `CC(=O)O[C@H]1C(=O)[C@@]2(C)[C@H]([C@H](OC(=O)c3ccccc3)[C@]3(O)C[C@H](OC(=O)[C@H](O)[C@@H](NC(=O)c4ccccc4)c4ccccc4)C(C)=C1C3(C)C)[C@]1(OC(C)=O)CO[C@@H]1C[C@@H]2O` [Paclitaxel, reference compound], the IC50 with SCM-1 cells was 80 ± 10 nM.

As to `O=C(NCC1(c2nc(-c3ccccc3)cs2)CCOCC1)c1cccc(-c2noc(C(F)(F)F)n2)c1` [TMP269, reference compound], in the assay on SCC2095 cells [3], the ROS generation entry is on record as “increased”. Also, in the assay on SCC2095 cells [4], the IC50 turned out to be 18100 ± 3800 nM. Besides, the “phosphorylation of Histone H2A.X” value with SCC2095 cells [5] is given as “increased”.

In the case of `CC/C(=C(\c1ccccc1)c1ccc(OCCN(C)C)cc1)c1ccccc1` [Tamoxifen, reference compound], in the assay on MDA-MB-231 cells, the IC50 came to 11400 ± 900 nM.
